{
  "source": "PubChem BioAssay (NCI)",
  "assay_in_all_cases": "DTP human tumour cell line panel, 48 h",
  "key": {"[1]": {"system": "786-0 renal"}, "[2]": {"system": "SNB-19 CNS"}, "[3]": {"system": "SF-295 CNS"}, "[4]": {"system": "BT-549 breast"}, "[5]": {"system": "NCI-H460 lung"}, "[6]": {"system": "RPMI-8226 leukemia"}, "[7]": {"system": "NCI-H522 lung"}, "[8]": {"system": "DU-145 prostate"}, "[9]": {"system": "OVCAR-4 ovarian"}, "[10]": {"system": "EKVX NSCLC"}, "[11]": {"system": "U251 CNS"}, "[12]": {"system": "HS 578T breast"}, "[13]": {"system": "SK-MEL-28 melanoma"}, "[14]": {"system": "OVCAR-5 ovarian"}, "[15]": {"system": "SR leukemia"}, "[16]": {"system": "K-562 leukemia"}, "[17]": {"system": "SK-MEL-2 melanoma"}, "[18]": {"system": "CAKI-1 renal"}, "[19]": {"system": "OVCAR-8 ovarian"}, "[20]": {"system": "HCC-2998 colon"}, "[21]": {"system": "KM12 colon"}, "[22]": {"system": "SF-268 CNS"}, "[23]": {"system": "NCI-H23 lung"}, "[24]": {"system": "T-47D breast"}, "[25]": {"system": "UACC-257 melanoma"}, "[26]": {"system": "ACHN renal"}, "[27]": {"system": "COLO 205 colon"}, "[28]": {"system": "SN12C renal"}, "[29]": {"system": "IGROV1 ovarian"}, "[30]": {"system": "MCF7 breast"}, "[31]": {"system": "UACC-62 melanoma"}, "[32]": {"system": "MDA-MB-231 breast"}, "[33]": {"system": "OVCAR-3 ovarian"}, "[34]": {"system": "LOX IMVI melanoma"}, "[35]": {"system": "A549 NSCLC"}, "[36]": {"system": "SF-539 CNS"}, "[37]": {"system": "RXF 393 renal"}, "[38]": {"system": "UO-31 renal"}, "[39]": {"system": "M14 melanoma"}, "[40]": {"system": "NCI/ADR-RES ovarian"}, "[41]": {"system": "SW-620 colon"}, "[42]": {"system": "TK-10 renal"}, "[43]": {"system": "MDA-MB-435"}, "[44]": {"system": "PC-3 prostate"}, "[45]": {"system": "HL-60(TB) leukemia"}, "[46]": {"system": "HOP-62 NSCLC"}, "[47]": {"system": "HCT-116 colon"}, "[48]": {"system": "HOP-92 NSCLC"}, "[49]": {"system": "HCT-15 colon"}, "[50]": {"system": "SK-MEL-5 melanoma"}},
  "note": "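1) Cells in 96-well plates. 2) Compound, 48 h, 5 concentrations. 3) Linear interpolation between surrounding doses. 4) Unreached endpoint = highest concentration. At the GI50, growth is halved. TGI denotes the concentration required for complete inhibition of growth.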",
  "data": [
    {"compound": "CCC(CC)c1nc(Nc2cccc(OC)c2)c2ccccc2n1", "values": [
      {"measurement": "GI50", "setting": "[1]", "value": 11, "unit": "µM"},
      {"measurement": "TGI", "setting": "[1]", "value": 18.2, "unit": "µM"},
      {"measurement": "GI50", "setting": "[2]", "value": 6.86, "unit": "µM"},
      {"measurement": "TGI", "setting": "[2]", "value": 13.3, "unit": "µM"},
      {"measurement": "GI50", "setting": "[3]", "value": 6.55, "unit": "µM"},
      {"measurement": "TGI", "setting": "[3]", "value": 12.9, "unit": "µM"},
      {"measurement": "GI50", "setting": "[4]", "value": 7.19, "unit": "µM"},
      {"measurement": "TGI", "setting": "[4]", "value": 13.7, "unit": "µM"},
      {"measurement": "GI50", "setting": "[5]", "value": 12.9, "unit": "µM"},
      {"measurement": "TGI", "setting": "[5]", "value": 38.4, "unit": "µM"},
      {"measurement": "GI50", "setting": "[6]", "value": 5.41, "unit": "µM"},
      {"measurement": "TGI", "setting": "[6]", "value": 11.3, "unit": "µM"},
      {"measurement": "GI50", "setting": "[7]", "value": 7.51, "unit": "µM"},
      {"measurement": "TGI", "setting": "[7]", "value": 15.3, "unit": "µM"},
      {"measurement": "GI50", "setting": "[8]", "value": 6.48, "unit": "µM"},
      {"measurement": "TGI", "setting": "[8]", "value": 12.8, "unit": "µM"},
      {"measurement": "GI50", "setting": "[9]", "value": 6.95, "unit": "µM"},
      {"measurement": "TGI", "setting": "[9]", "value": 13.6, "unit": "µM"},
      {"measurement": "GI50", "setting": "[10]", "value": 8.05, "unit": "µM"},
      {"measurement": "TGI", "setting": "[10]", "value": 14.8, "unit": "µM"},
      {"measurement": "GI50", "setting": "[11]", "value": 7.98, "unit": "µM"},
      {"measurement": "TGI", "setting": "[11]", "value": 14.7, "unit": "µM"},
      {"measurement": "GI50", "setting": "[12]", "value": 7.71, "unit": "µM"},
      {"measurement": "TGI", "setting": "[12]", "value": 15.4, "unit": "µM"},
      {"measurement": "GI50", "setting": "[13]", "value": 6.72, "unit": "µM"},
      {"measurement": "TGI", "setting": "[13]", "value": 13.1, "unit": "µM"},
      {"measurement": "GI50", "setting": "[14]", "value": 9.68, "unit": "µM"},
      {"measurement": "TGI", "setting": "[14]", "value": 16.7, "unit": "µM"},
      {"measurement": "GI50", "setting": "[15]", "value": 9.81, "unit": "µM"},
      {"measurement": "TGI", "setting": "[15]", "value": 24.2, "unit": "µM"},
      {"measurement": "GI50", "setting": "[16]", "value": 4.3, "unit": "µM"},
      {"measurement": "TGI", "setting": "[16]", "value": "> 50", "unit": "µM"},
      {"measurement": "GI50", "setting": "[17]", "value": 7.11, "unit": "µM"},
      {"measurement": "TGI", "setting": "[17]", "value": 15.2, "unit": "µM"},
      {"measurement": "GI50", "setting": "[18]", "value": 5.9, "unit": "µM"},
      {"measurement": "TGI", "setting": "[18]", "value": 12, "unit": "µM"},
      {"measurement": "GI50", "setting": "[19]", "value": 8.85, "unit": "µM"},
      {"measurement": "TGI", "setting": "[19]", "value": 17.9, "unit": "µM"},
      {"measurement": "GI50", "setting": "[20]", "value": 7.68, "unit": "µM"},
      {"measurement": "TGI", "setting": "[20]", "value": 14.3, "unit": "µM"},
      {"measurement": "GI50", "setting": "[21]", "value": 6.11, "unit": "µM"},
      {"measurement": "TGI", "setting": "[21]", "value": 12.3, "unit": "µM"},
      {"measurement": "GI50", "setting": "[22]", "value": 11.5, "unit": "µM"},
      {"measurement": "TGI", "setting": "[22]", "value": 29.5, "unit": "µM"},
      {"measurement": "GI50", "setting": "[23]", "value": 8.27, "unit": "µM"},
      {"measurement": "TGI", "setting": "[23]", "value": 15.1, "unit": "µM"},
      {"measurement": "GI50", "setting": "[24]", "value": 0.005, "unit": "µM"},
      {"measurement": "TGI", "setting": "[24]", "value": 0.234, "unit": "µM"},
      {"measurement": "GI50", "setting": "[25]", "value": 8.06, "unit": "µM"},
      {"measurement": "TGI", "setting": "[25]", "value": 14.8, "unit": "µM"},
      {"measurement": "GI50", "setting": "[26]", "value": 7.71, "unit": "µM"},
      {"measurement": "TGI", "setting": "[26]", "value": 14.4, "unit": "µM"},
      {"measurement": "GI50", "setting": "[27]", "value": 11, "unit": "µM"},
      {"measurement": "TGI", "setting": "[27]", "value": 18.3, "unit": "µM"},
      {"measurement": "GI50", "setting": "[28]", "value": 7.35, "unit": "µM"},
      {"measurement": "TGI", "setting": "[28]", "value": 13.9, "unit": "µM"},
      {"measurement": "GI50", "setting": "[29]", "value": 10.2, "unit": "µM"},
      {"measurement": "TGI", "setting": "[29]", "value": 19.2, "unit": "µM"},
      {"measurement": "GI50", "setting": "[30]", "value": 10.6, "unit": "µM"},
      {"measurement": "TGI", "setting": "[30]", "value": "> 50", "unit": "µM"},
      {"measurement": "GI50", "setting": "[31]", "value": 7.28, "unit": "µM"},
      {"measurement": "TGI", "setting": "[31]", "value": 13.8, "unit": "µM"},
      {"measurement": "GI50", "setting": "[32]", "value": 6.57, "unit": "µM"},
      {"measurement": "TGI", "setting": "[32]", "value": 12.9, "unit": "µM"},
      {"measurement": "GI50", "setting": "[33]", "value": 5.9, "unit": "µM"},
      {"measurement": "TGI", "setting": "[33]", "value": 12, "unit": "µM"},
      {"measurement": "GI50", "setting": "[34]", "value": 6.43, "unit": "µM"},
      {"measurement": "TGI", "setting": "[34]", "value": 12.7, "unit": "µM"},
      {"measurement": "GI50", "setting": "[35]", "value": 7.11, "unit": "µM"},
      {"measurement": "TGI", "setting": "[35]", "value": 13.6, "unit": "µM"},
      {"measurement": "GI50", "setting": "[36]", "value": 8.29, "unit": "µM"},
      {"measurement": "TGI", "setting": "[36]", "value": 15.1, "unit": "µM"},
      {"measurement": "GI50", "setting": "[37]", "value": 7.29, "unit": "µM"},
      {"measurement": "TGI", "setting": "[37]", "value": 14.7, "unit": "µM"},
      {"measurement": "GI50", "setting": "[38]", "value": 6.95, "unit": "µM"},
      {"measurement": "TGI", "setting": "[38]", "value": 13.4, "unit": "µM"},
      {"measurement": "GI50", "setting": "[39]", "value": 11.3, "unit": "µM"},
      {"measurement": "TGI", "setting": "[39]", "value": 18.5, "unit": "µM"},
      {"measurement": "GI50", "setting": "[40]", "value": 10.3, "unit": "µM"},
      {"measurement": "TGI", "setting": "[40]", "value": 17.4, "unit": "µM"},
      {"measurement": "GI50", "setting": "[41]", "value": 7.47, "unit": "µM"},
      {"measurement": "TGI", "setting": "[41]", "value": 14.1, "unit": "µM"},
      {"measurement": "GI50", "setting": "[42]", "value": 10.7, "unit": "µM"},
      {"measurement": "TGI", "setting": "[42]", "value": 17.9, "unit": "µM"},
      {"measurement": "GI50", "setting": "[43]", "value": 6.92, "unit": "µM"},
      {"measurement": "TGI", "setting": "[43]", "value": 13.4, "unit": "µM"},
      {"measurement": "GI50", "setting": "[44]", "value": 6.86, "unit": "µM"},
      {"measurement": "TGI", "setting": "[44]", "value": 13.3, "unit": "µM"},
      {"measurement": "GI50", "setting": "[45]", "value": 12, "unit": "µM"},
      {"measurement": "TGI", "setting": "[45]", "value": "> 50", "unit": "µM"},
      {"measurement": "GI50", "setting": "[46]", "value": 8.06, "unit": "µM"},
      {"measurement": "TGI", "setting": "[46]", "value": 14.8, "unit": "µM"},
      {"measurement": "GI50", "setting": "[47]", "value": 8.31, "unit": "µM"},
      {"measurement": "TGI", "setting": "[47]", "value": 15.1, "unit": "µM"},
      {"measurement": "GI50", "setting": "[48]", "value": 2.86, "unit": "µM"},
      {"measurement": "TGI", "setting": "[48]", "value": 9.98, "unit": "µM"},
      {"measurement": "GI50", "setting": "[49]", "value": 7.45, "unit": "µM"},
      {"measurement": "TGI", "setting": "[49]", "value": 14.1, "unit": "µM"},
      {"measurement": "GI50", "setting": "[50]", "value": 6.07, "unit": "µM"},
      {"measurement": "TGI", "setting": "[50]", "value": 12.3, "unit": "µM"}
    ]}
  ]
}
